ChEMBL document CHEMBL2074035, “Identification of the hepatic efflux transporters of organic anions using double-transfected Madin-Darby canine kidney II cells expressing human organic anion-transporting polypeptide 1B1 (OATP1B1)/multidrug resistance-associated protein 2, OATP1B1/multidrug resistance 1, and OATP1B1/breast cancer …” (J Pharmacol Exp Ther, 2005)

What was measured:
[1] = target: T1, Broad substrate specificity ATP-binding cassette transporter ABCG2 (Homo sapiens, UniProt Q9UNQ0); assay: TP_TRANSPORTER: Transepithelial Transport (basal to apical) in OATP1B1/BCRP double transfected MDCKII cells; format: functional, cell-based; conditions: dog, mdck-ii
T1 sequence (Q9UNQ0 whole entry): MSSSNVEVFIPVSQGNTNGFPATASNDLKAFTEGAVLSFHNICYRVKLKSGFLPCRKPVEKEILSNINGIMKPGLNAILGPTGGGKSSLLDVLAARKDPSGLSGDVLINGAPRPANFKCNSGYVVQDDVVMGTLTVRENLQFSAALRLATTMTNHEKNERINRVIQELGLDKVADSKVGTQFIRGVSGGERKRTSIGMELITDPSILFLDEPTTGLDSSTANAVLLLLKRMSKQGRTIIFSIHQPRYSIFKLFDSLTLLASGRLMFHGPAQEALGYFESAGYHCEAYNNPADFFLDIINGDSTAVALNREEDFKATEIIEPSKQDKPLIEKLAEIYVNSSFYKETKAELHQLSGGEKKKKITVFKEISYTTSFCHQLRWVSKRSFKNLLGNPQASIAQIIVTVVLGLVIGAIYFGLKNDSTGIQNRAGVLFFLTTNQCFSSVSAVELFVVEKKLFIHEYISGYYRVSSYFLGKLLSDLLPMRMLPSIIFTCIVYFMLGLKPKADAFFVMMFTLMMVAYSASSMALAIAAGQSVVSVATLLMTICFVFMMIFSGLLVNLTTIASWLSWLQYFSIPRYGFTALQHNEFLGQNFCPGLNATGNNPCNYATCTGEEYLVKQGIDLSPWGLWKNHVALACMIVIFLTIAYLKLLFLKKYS

[2] = target: Canalicular multispecific organic anion transporter 1/Solute carrier organic anion transporter family member 1B1 (Homo sapiens, UniProt Q92887+Q9Y6L6); assay: TP_TRANSPORTER: Transepithelial Transport (basal to apical) in OATP1B1/MRP2 double transfected MDCKII cells; format: functional, cell-based; conditions: dog, mdck-ii

| Activity [1] | Activity [2] | Compound |
| --- | --- | --- |
| substrate [(+)] | substrate [(+)] | C[C@]12CC[C@@H]3c4ccc(OS(=O)(=O)O)cc4CC[C@H]3[C@@H]1CCC2=O [ESTRONE SULFURIC ACID] |
| substrate [(+)] | substrate [(+)] | CC[C@H](C)C(=O)O[C@H]1C[C@H](O)C=C2C=C[C@H](C)[C@H](CC[C@@H](O)C[C@@H](O)CC(=O)O)[C@H]21 [PRAVASTATIN] |

| Compound | Activity [1] | Activity [2] |
| --- | --- | --- |
| C[C@]12CC[C@@H]3c4ccc(O)cc4CC[C@H]3[C@@H]1CC[C@@H]2O[C@@H]1O[C@H](C(=O)O)[C@@H](O)[C@H](O)[C@H]1O [ESTRADIOL 17B GLUCURONIDE] | substrate [(+)] | substrate [(+)] |
